Patent US20150335678A1, “METHOD OF ACTIVATING STEM CELLS IN AN ANIMAL AND THE USE OF CHLORINE DIOXIDE FOR PREPARING MEDICINES FOR ACTIVATING STEM CELLS IN AN ANIMAL” (priority 2012, published 2015)

How the values were obtained:
alopecia areata = assay: Alopecia areata patients, topical solution with dimethyl sulfoxide (Example 4); assay type: in vivo, human
Description: The first solution was a mixed solution made of sodium chlorite with the concentration of 7.47% and sodium chloride with the concentration of 1.59% with deionized water; the second solution was made of citric acid with the concentration of 16.7% with deionized water.
Same volume of solutions were taken out from different vessels with different volumes and put into the suitable glass or plastic cups prepared. Allow the solution to mix for 3-5 minutes and then filter the solution with 0.22 μm filter membrane of double-deck, dimethyl sulfoxide was added in a ratio of 1:1, and then smear solution over the alopecia areata with the swab, waiting for 1-2 hours before cleaning the head, the drug was administered once a day according to the method. The first period lasted for 15-25 days, then the drug was stopped for 2-5 months; The second period lasted for 15-25 days in the light of the situation.
The subjects consisted of 11 male alopecia areata patients and a patient (the patients are between 22-40 years old.) They administered the activating agent of stem cell as volunteers, see Table 12.

[1] = system: CD34-positive mononuclear cells; assay: CD34-positive mononuclear cells in peripheral blood of lower limb DVT patients, flow cytometry (Example 2); assay type: in vivo, human; settings: before administration 0.38 ± 0.42, 14 days
Description: The subjects consisted of 14 male and 6 female lower limb DVT patients with the unilateral limb suffer from the illness, aged from 59 to 76 years old (average age: 67.2 years old). The purpose of the clinical test was explained to all subjects and their consent was obtained before conducting the clinical test.
The first solution was a mixed solution made of sodium chlorite with the concentration of 7.47% and sodium chloride with the concentration of 1.59% with deionized water; the second solution was made of citric acid with the concentration of 16.7% with deionized water. Same volume of solutions were taken out from different vessels with different volumes and mixed up. Allow the solution to mix for 3-5 minutes and dilute it 5 times with normal saline, then filter it with 0.22 μm filter membrane of double-deck. The solution was immediately put into injector. The solution was prepared once being used. […]
Five ml of peripheral blood was collected from the median cubital vein of the forearm of each patient using low molecular weight heparin anticoagulant before administration (before initial administration) and on day 7 and 14 after administration, and the collected blood was immediately stored at 4° C. and measured within 6 hours after collection. […]

[2] = system: rat model of type II diabetes mellitus; assay: Fasting blood-glucose in rat model of type II diabetes mellitus (Example 10); assay type: in vivo
Description: The rat models of type II diabetes mellitus bought from Department of Medicine of Peking University were divided into group A and B randomly with 10 rats for each group. Group A was treatment group of activating agent of stem cells. Group B was control group of 0.9% sodium chloride of the same volume. The rats of group A were injected with 0.5 ml activating agent of stem cells at insulin injection site on day 0, same dosage of medicine were injected on day 7, day 14; The rats of group B were injected with 0.5 ml NS at hepatic artery at the same point-in-time, then calculate the blood sugar. The fasting blood-glucose of the rat model was checked on day 7, day 14, day 21 and day 28 respectively after the last injection. Table 20 is the results.

chronic eczema = assay: Chronic eczema patients, topical solution (Example 7); assay type: in vivo, human
Description: The subjects consisted of 12 patients with chronic eczema and average seven years of course of disease. External used medicines and oral administration, such as glucocorticoid and antihistamine drug were used discontinuously, but were poor in treatment. Activating agent was administered according to the following methods:
To smear solution over the affected parts immediately, once a day for consecutive 10 to 15 days, and then stop administration. If the eczema relapsed, reusing it again.

[3] = system: postoperative complications of lung cancer; assay: Postoperative complications of lung cancer (Example 12); assay type: in vivo, human; settings: 15 patients
Description: The subjects consisted of 30 lung cancer patients of stage I, II III who had operations on lung cancer just now. The subjects were randomly assigned to treatment group and control group with 15 patients respectively.
[…] acid aqueous solution with a ph value of 3 was made by citric acid and deionized water. 500 ml aqueous solution of 30% was made with deionized water and sodium chlorite, 500 ml aqueous solution of 50% was made with deionized water and citric acid. To mix the above solutions in a conical beaker of 2 L capacity and then put them in the prepared acid aqueous solution by a plastic tube with bottle stopper. The activating agent of stem cells comprising chlorine dioxide was made by bubbling chlorine dioxide in the acid aqueous solution for 40 minutes and the solution was contained in 150 plastic bottles with 100 ml capacity and stored in the fridge.
Each patient in treatment group received 10 bottles of the solution. Open the plastic bottle cap and do alternate nostril breathing for 2-10 minutes on day 2 after the operation with a bottle a day for three times, then cover the bottleneck once finished. No special nursing means were applied in control group, then observe the complications a month after the operation.

[4] = system: chronic and allergic rhinitis; assay: Chronic and allergic rhinitis patients vs ephedrine nose drops (Example 9); assay type: in vivo, human
Description: The subjects consisted of 30 patients with chronic and allergic rhinitis, and half of them were randomly assigned to treatment group and control group.
The first solution was a mixed solution made of sodium chlorite with the concentration of 7.47% and sodium chloride with the concentration of 1.59% with deionized water; the second solution was made of citric acid with the concentration of 16.7% with deionized water. The solution comprising chlorine dioxide was made by mixing up the two solutions above. To make 50 ml solution for each patient each time and put it into a bottle and stores it in the refrigerator. 2-5 ml of solution for each patient each time was taken out and put into a beaker. The patients would breathe aiming at the cup-mouth for one to two minutes, and then the solution was diluted five to hundred times with normal saline before being put into nasal spray. To spray on each side of nose for three to five times. It was conducted once a day for consecutive 5 to 10 days. Then the administration was stopped, reuse the administration method for recurrence. The course of treatment was three months. The administration for patients in control group: use the ephedrine nose drops three times a day with three drops on each side each time for consecutive seven days. Reuse the administration method for recurrence. The course of treatment was three months.
Evaluation of the effects: The effects can be divided into excellent, effective and ineffective according to symptoms and signs. 1) Excellent: subjective symptoms disappear and positive sign become normal. 2) Effective: subjective symptoms and positive sign decrease obviously. […] Total effective rate(%)=(No. of excellent cases+No. of effective cases)/total cases×100%. Recurrence rate of rhinitis after treatment means the recurrence rate six months after treatment of all the cases. Table 19 is about the treatment of rhinitis.

[5] = system: APTT, PT and TT (blood coagulation and fibrinolysis systems); assay: Side effects in lower limb DVT patients: APTT, PT, TT and pain
Description: Chlorine dioxide solution was administered to the patients through the contralateral femoral artery puncture (sick side) for 14 consecutive days, a dose of 10 ml/body/day. Before injection, use 2 ml-5 ml lidocaine of 2% to perform infiltration anesthesia at puncture point.

[6] = 12 cases traced for eight months
[7] = 30 cases per group, three-month course

SMILES: [O][Cl+][O-] [chlorine dioxide solution, chlorine dioxide]
- time until new hair equably grew, second period of administration (alopecia areata; course of disease more than 12 months, 7 patients): equably grow 3-5 days.
- time until new hair grew along the alopecia areata area, first period of administration (alopecia areata; course of disease more than 12 months, 7 patients, NaClO2 7.47% + citric acid 16.7% 1:1, DMSO 1:1, smeared once a day): 3-5 days after
- time until new hair grew, second period of administration (alopecia areata; course of disease within 12 months, 5 patients): 3-5 days after
- time until new hair grew, first period of administration (alopecia areata; course of disease within 12 months, 5 patients, NaClO2 7.47% + citric acid 16.7% 1:1, DMSO 1:1, smeared once a day 15-25 days): 3-5 days after
- hair fell off, second period of administration (alopecia areata; course of disease within 12 months, 5 patients, second period 15-25 days after 2-5 months off): About 50% of hair fell
- CD34-Positive Mononuclear Cells (ratio among mononuclear cells, mean±SD) ([1]; Day 7 after administration, n=20, NaClO2 7.47% + citric acid 16.7% 1:1 diluted 5 times, 10 ml/body/day femoral artery puncture): 0.91 ± 0.51 %
- CD34-Positive Mononuclear Cells (ratio among mononuclear cells, mean±SD) ([1]; Day 14 after administration, n=15, diluted solution 10 ml/body/day femoral artery puncture): 1.4 ± 0.68 %
- MBG (fasting blood-glucose), ±SD ([2]; Day 7 after administration, Group A n=10, Day 0 17.3 ± 0.4, NS group 18.3 ± 2.4, NaClO2 4%/NaCl 1% + citric acid 8% 1:1, 0.5 ml injected day 0, 7, 14): 9.3 ± 3.5 mmol/L
- MBG (fasting blood-glucose), ±SD ([2]; Day 14 after administration, Day 0 17.3 ± 0.4, NS group 17.2 ± 1.6, 0.5 ml injected day 0, 7, 14): 4.3 ± 1.1 mmol/L
- MBG (fasting blood-glucose), ±SD ([2]; Day 28 after administration, Day 0 17.3 ± 0.4, NS group 17.9 ± 2.3, 0.5 ml injected day 0, 7, 14): 3.1 ± 1.2 mmol/L
- FBG levels of rats in treatment group ([2]; control group remains unchanged): become normal after 14 days
- side effects ([2]; rat model of type II diabetes mellitus): few or no side effects
- MBG (fasting blood-glucose), ±SD ([2]; rat, in vivo): 3.5 ± 1.3 mmol/L
- cases that recurred once and did not recur after treatment for two times (chronic eczema; [6]): four
- cases that recurred twice and did not recur after the third treatment (chronic eczema; [6]): two
- cases with no recurrence (chronic eczema; [6]): six
- clinical sign and pathological change of tissue after treatment (chronic eczema; 12 chronic eczema patients): became normal
- time until stabbing pain and itching disappeared after administration (chronic eczema; 12 chronic eczema patients, NaClO2 8%/NaCl 2% + citric acid 12% 1:1, smeared once a day 10 to 15 days): about half an hour
- time until the affected parts scabbed (chronic eczema; 12 chronic eczema patients, topical once a day): two to five days
- Serious complications (No.) ([3]; a month after lung cancer operation, ClO2 gas bubbled into pH 3 citric acid solution, nostril breathing 2-10 minutes three times a day, 10 bottles, control 4 (26.7%)): 1
- No complication (No.) ([3]; a month after operation, inhalation, control 5 (33.3%)): 9
- Minor complications (No.) ([3]; a month after operation, inhalation, control 6 (40%)): 5
- Serious complications (%) ([3]; a month after operation, inhalation, control 26.7%): 6.7%
- No complication (%) ([3]; a month after operation, inhalation, control 33.3%): 60%
- Minor complications (%) ([3]; a month after operation, inhalation, control 40%): 33.3%
- Effective (No. of cases): symptoms and signs decrease obviously [4, 7]: 3
- Effective rate = (excellent + effective)/total cases [4, 7]: 97%
- Ineffective (No. of cases) [4, 7]: 1
- Excellent (No. of cases): symptoms disappear, signs normal ([4]; 30 cases per group, three-month course, test: NaClO2 7.47% + citric acid 16.7%, breathed 1-2 min then nasal spray diluted 5-100 times, once a day 5 to 10 days, control three times a day seven days): 26
- No. of Recurrences ([4]; six months after treatment): 3
- Recurrence rate ([4]; six months after treatment): 10%
- duration of stabbing pain after injection without anesthetic ([5]; almost all the patients, day one after administration): 30 min
- APTT, PT and TT, before vs after administration ([5]; before, day 7 and day 14 after administration, lower limb DVT patients, 10 ml/body/day femoral artery puncture): no significant differences
- side effects by administration ([5]; lower limb DVT patients, 10 ml/body/day femoral artery puncture, 14 days): no occurrence of side effects
